Structures are written as SMILES. Where “and” joins values, the source holds several entries; their conditions need not be identical. Equal values may be shown once. Entries after “also recorded” stand apart in the source; their conditions may differ.

Common to all, as to assay type: cell-based
For test [1], the system named is six other cultured cell lines (breast cancer lines not PTEN-null TNBC, fibroblast lines). The test can be described thus: Cell viability assay (AlamarBlue), six other cultured cell lines. As to conditions: for toxicity and selectivity across cell lines: 3 days. Here is the method:
(§1) After this time, cells were lysed and analyzed by antibodies for phosphorylated T305 (pT305) of Akt3, Halo (Akt), and Actin (loading control). […] FIG. 23F is a graph showing proliferation curves. […] After this time, the number of viable cells was calculated using AlamarBlue®. Proliferation curves were fitted to the PI50 equation (EQN. 4). […] FIG. 23H is a graph showing the percentage of viable cells. […] The percentage of growth relative to DMSO-treated cells is shown for the 48 hour point and the 72 hour point. FIG. 23I is a schematic showing the different methods used to derive the data in 23H.
(§2) Indicated cells were plated in a 96-well plate containing the DMEM complete medium (see Example 11 for complete medium formulation, 100 μL per well) with a density of 3,000-5,000 cells per well for 12 hours followed by the addition of varying concentrations of inhibitors in rinse medium (100 μL). The cells were allowed to grow for 72 hours and 100 μL of the culture medium was removed from each well. This was followed by the addition of 10 μL AlamarBlue® reagent to each well. The fluorescence emission signals at 590 nm were read by Cytation 3 cell imaging multi-mode reader (BioTeK) using an excitation wavelength of 560 nm. Curve fitting and data analysis were performed using Prism software.

The test system of test [2] is MDA-MB-468 cells. As to the kind of experiment: Assay for drug synergism with Akt isoform-specific knockdown. As to conditions: for Fold Selectivity (MK-FNE vs MK-2206 sensitization by knockdown): 72 hours. As for the experimental part:
MDA-MB-468 cells were plated in a 6-well plate to reach 80% confluence 10 hours post seeding. […] The cells were allowed to grow for 12 hours before addition of an equivalent volume of rinse medium containing varying concentrations of MK-2206, MK-FNE, or DMSO. The cells continued to grow for 72 hours before adding 1/10th volume of AlamarBlue® reagent to culture medium. The fluorescence emission signals at 590 nm were read by Cytation 3 cell imaging multi-mode reader (BioTeK) using an excitation wavelength of 560 nm. Curve fitting and data analysis were performed using Prism software. The effect of the different knockdowns on the drug action was expressed by calculating the fold selectivity (S): […]

The test system of test [3] is MDA-MB-468 cells. As to the kind of experiment: Drug effect persistence assay. As to conditions: for proliferation after drug withdrawal vs continuous treatment: 48 hours drug, then 24 hours without. Here is the method:
as §1
MDA-MB-468 cells were plated in a 96-well plate at a density of 3,000-5,000 cells per well for 10 hours before the addition of varying concentrations of inhibitors. The cells were allowed to grow for 48 hours. The cell medium was aspirated and the cells were washed once with DMEM medium. The cells continued to grow in 5% FBS DMEM medium for 24 hours before adding 1/10th volume of AlamarBlue® reagent to cells in culture medium. The fluorescence emission signals at 590 nm were read using a Cytation 3 cell imaging multi-mode reader (BioTeK) using an excitation wavelength of 560 nm. Curve fitting and data analyses were performed using Prism software (FIG. 23I).

For test [4], the target named is T1, Halo-Akt3 (Homo sapiens, UniProt Q9Y243).
T1 construct: expressed in transfected cells; host or cells: HEK293T
T1 sequence (Q9Y243 whole entry): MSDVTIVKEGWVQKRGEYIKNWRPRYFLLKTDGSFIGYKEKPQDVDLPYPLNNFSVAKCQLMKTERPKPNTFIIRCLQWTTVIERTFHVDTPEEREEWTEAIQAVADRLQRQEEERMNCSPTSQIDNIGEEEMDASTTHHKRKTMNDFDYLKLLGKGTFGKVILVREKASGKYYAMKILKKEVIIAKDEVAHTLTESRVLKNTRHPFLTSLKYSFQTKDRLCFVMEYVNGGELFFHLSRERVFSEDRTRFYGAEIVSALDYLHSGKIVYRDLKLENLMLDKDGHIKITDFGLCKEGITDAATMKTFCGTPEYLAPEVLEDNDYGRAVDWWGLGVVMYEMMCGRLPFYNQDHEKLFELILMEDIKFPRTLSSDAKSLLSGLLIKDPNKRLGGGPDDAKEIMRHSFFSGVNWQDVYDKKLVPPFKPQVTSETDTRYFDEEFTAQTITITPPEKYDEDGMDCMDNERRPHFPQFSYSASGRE
As to the kind of experiment: In-gel fluorescence assay (Cy5-azide click) of covalent labeling in transfected HEK293T cells. Particulars: 5 μM, 48 hours. Here is the method: HEK293T cells were transfected with Halo-Akt3 for 20 hours, then treated with the stated compound (5 μM, 48 hours). After this time, cells were lysed and the labeling was assayed by click chemistry. […] FIGS. 19A, 19C top gels are images showing in gel fluorescence, Cy5 channel. M is a molecular weight ladder. FIG. 19A, 19C lower panels are images of western blots (probing for Halo and actin, respectively) transferred from the same gel as the top image. […] FIGS. 19E-19F are graphs showing quantitation of in-gel Cy5 signal intensity, divided by the western blot signal for Halo.
Cell transfection with the designated plasmid encoding a given HaloTag-Akt fusion gene was carried out following the general procedure described in Example 12. After 20-24 hours, the transfection media were aspirated and replaced with fresh 2 mL rinse MEM medium supplemented with 3% FBS containing the indicated concentration of inhibitor or the equivalent final volume of DMSO and the plates were incubated for the indicated period of time. Cells were then harvested and lysed following the general procedure described in Examples 11 and 13. A portion of the lysate was made up to 25 μL final volume containing, in final concentrations, 5% t-BuOH, [2 mM TCEP, 1% SDS, 1 mM CuSO4, 0.1 mM Cu(TBTA), 10 μM Cy5 azide made up as a 10× stock in water] and 1.0 mg/mL lysate protein. The samples were incubated at 37° C. for 30 min and subsequently quenched with 8 μL of 4×Laemmeli dye containing 6% f ME. After an additional 5-min incubation at 37° C., samples were resolved on a 10% SDS-PAGE gel following the general procedure described in Example 14. After electrophoresis, the gel was rinsed three times with ddH2O and imaged on a Bio-Rad Chemi-doc-MP Imager. Where applicable, the gel was transferred to a PVDF membrane for western blot analysis following the general procedure described in Example 15.

The subject of test [5] is T47D MK-2206-res. As to the kind of experiment: Cell viability assay (AlamarBlue), MK-2206-resistant line. Particulars: 3 days. As for the experimental part:
as §1, §2

Test [6] addresses T2, Akt1 (Homo sapiens, UniProt P31749).
T2 construct: expressed in transfected cells; host or cells: HEK293T
As to the kind of experiment: In-gel fluorescence assay (Cy5-azide click) of covalent labeling in transfected HEK293T cells. As to conditions: 5 μM, 48 hours. The source says:
(§3) Overexpressed Akt proteins were labeled with Cy5-small-molecule-fluorophore-conjugated azide (Cy5-azide) using standard click chemistry. FIG. 16A top gel is an image showing Cy5 channel (used to evaluate the extent of covalent binding on each Akt protein). The lysate from non-transfected HEK 293T cells was also used for comparison. M, molecular weight ladder. […] FIG. 16B top gel is an image showing Cy5 channel. M is a molecular weight ladder. FIG. 16B bottom is an image showing western blots probing Halo and actin, respectively. […] Error bars designate s.d. […] Normalized fluorescent signal (NFS) was calculated from the following equation: NFS=[(Cy5(X μM drug)−Cy5(No transfection))/Halo(X μM drug)]÷[(Cy5(no drug)−Cy5(No transfection))/Halo(no drug)]. The relative fluorescent signal (RFS) is calculated from the following equation: RFS=(Cy5(X μM drug)/Halo(X μM drug)) (Cy5(no drug)/Halo(no drug))
(§4) Cell transfection with the designated plasmid encoding a given HaloTag-Akt fusion gene was carried out following the general procedure described in Example 12. After 20-24 hours, the transfection media were aspirated and replaced with fresh 2 mL rinse MEM medium supplemented with 3% FBS containing the indicated concentration of inhibitor or the equivalent final volume of DMSO and the plates were incubated for the indicated period of time. […]

In test [7] the target is T3, Akt3 C119S mutant (Homo sapiens, UniProt Q9Y243, C119S).
T3 construct: expressed in transfected cells; host or cells: HEK293T
T3 sequence (Q9Y243 whole entry C119S): as the sequence (Q9Y243 whole entry) above, with C119S counted along it
Described as above. As to conditions: 5 μM, 48 hours.
From the text: as §3, §4

Test [8] has as its system endogenous Akt. As to the kind of experiment: Biotin-azide pulldown of endogenous Akt kinases from native HEK293T cells. Particulars: 5 μM, 12 hours.
Protocol: A fraction of each sample was used for the input blot. The remaining cell lysates were labeled with biotin-azide using standard click chemistry followed by streptavidin enrichment.
HEK293T cells were split in 100 cm^2 plates. […] Cells were harvested, washed twice with chilled 1×DPBS and flash frozen. Cell lysis was performed in 200 μL lysis buffer following general procedure described in Example 13, Each lysate was subsequently diluted to 2 mg/mL with lysis buffer and a small fraction of each lysate sample was kept for input gel. The remaining lysates were subjected to click reaction with biotin-azide for 30 min at 37° C. The final concentrations of each component was: 2 mM TCEP, 5% t-BuOH, 1% SDS, 1 mM CuSO4, 0.1 mM Cu(TBTA), 10 μM biotin-azide and 1.2 mg/mL lysate protein. The lysate proteins were precipitated by adding four volumes of ethanol pre-chilled at −20° C. The sample was vortexed and incubated at −80° C. overnight (or at least 4 hours). The precipitant was collected by centrifugation at 20,000×g for 30 min at 4° C. and washed twice with pre-chilled methanol then acetone. The pellet was resuspended in 25 μL 50 mM HEPES (pH 7.6), 8% LDS and 0.5 μM EDTA and dissolved by vortexing and heating at 42° C. for 5 min. […]
Where [9] appears, read: knockdown of Akt3 (approximately 40-60%).

T2 sequence (P31749 whole entry): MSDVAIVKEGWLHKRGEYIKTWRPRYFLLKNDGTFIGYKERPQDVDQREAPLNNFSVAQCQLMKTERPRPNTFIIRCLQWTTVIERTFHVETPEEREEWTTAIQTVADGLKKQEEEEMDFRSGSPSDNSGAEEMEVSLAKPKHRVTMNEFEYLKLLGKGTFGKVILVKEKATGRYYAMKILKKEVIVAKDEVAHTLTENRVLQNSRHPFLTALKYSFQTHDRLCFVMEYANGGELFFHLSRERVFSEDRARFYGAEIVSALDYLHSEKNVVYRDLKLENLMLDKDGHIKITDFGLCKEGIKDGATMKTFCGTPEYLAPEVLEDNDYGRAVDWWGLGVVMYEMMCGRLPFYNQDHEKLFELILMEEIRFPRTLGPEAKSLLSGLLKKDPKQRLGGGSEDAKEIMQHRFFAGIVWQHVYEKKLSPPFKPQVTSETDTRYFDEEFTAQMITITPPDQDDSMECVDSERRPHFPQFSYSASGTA

For the molecule `NC1(c2ccc(-c3nc4ccn5c(=O)[nH]nc5c4cc3-c3ccccc3)cc2)CCC1` [MK-2206], the “toxicity and selectivity across cell lines” value in test [1] was “generally toxic to most lines”. Further, the “sensitization to toxicity relative to control knockdown cells” value in test [2] (setting [9]) is 2-3 fold. Also, the “proliferation after drug withdrawal vs continuous treatment” value in test [3] was “significant regain of proliferation”. In addition, the EC60 concentration in test [3] (MDA-MB-468, concentration used for 48 hours treatment) is 2 µM.
As to `C#CCCCC(F)/C=C/C(=O)NC1(c2ccc(-c3nc4ccn5c(=O)[nH]nc5c4cc3-c3ccccc3)cc2)CCC1.Cl` (stereo not drawn) [MK-FNE, (E)-8-(4-(1-(4-Fluoronon-2-en-8-ynamido)cyclobutyl)phenyl)-3-oxo-9-phenyl-2,3-dihydro-[1,2,4]triazolo[3,4-f][1,6]naphthyridin-7-ium Chloride], the “covalent labeling of Halo-Akt3” value in test [4] was “able to elicit covalent labeling”. Besides, the “toxicity and selectivity across cell lines” value in test [1] is “significantly selective against PTEN-null TNBC lines”. The “PI50(MK-FNE)/PI50(MK-2206)” value in test [1] (all but PTEN-null TNBC lines, except TSE) is “greater than 2”; in test [1] (some lines), “above 8”. Also, the “resistance of T47D MK-2206-res line” value in test [5] was “significantly less resistant”. Also, the “sensitization to toxicity relative to control knockdown cells” value in test [2] (Akt1 or Akt2 knockdown (approximately 40-60%), on average) is “around 2 fold”; in test [2] (setting [9]), “around 8 fold”. Besides, the “Fold Selectivity (MK-FNE vs MK-2206 sensitization by knockdown)” value in test [2] (siAKT1, two siRNAs) was 0.5 and 0.4; in test [2] (siAKT3, two siRNAs), 3.9 and 3.7. The “proliferation after drug withdrawal vs continuous treatment” value in test [3] was “no difference between withdrawal (wd) and continuous (cont) treatment”.
Take `C#CCCCC(O)/C=C/C(=O)NC1(c2ccc(-c3nc4ccn5c(=O)[nH]nc5c4cc3-c3ccccc3)cc2)CCC1.Cl` (stereo not drawn) [MK-HNE, (E)-8-(4-(1-(4-Hydroxynon-2-en-8-ynamido)cyclobutyl)phenyl)-3-oxo-9-phenyl-2,3-dihydro-[1,2,4]triazolo[3,4-f][1,6]naphthyridin-7-ium Chloride]: the “covalent labeling of Halo-Akt3” value in test [4] is on record as “labeling was observed; also recorded: able to elicit covalent labeling”. In addition, the “covalent inhibition of Akt1 isoform” value in test [6] is listed as “no covalent inhibition”. Moreover, the “covalent modification of C119S mutant of Akt3” value in test [7] is recorded as “no covalent modification”. Further, the “labeling of endogenous Akt (streptavidin enrichment, anti-pan-Akt blot)” value in test [8] was “enrichment of endogenous Akt protein(s)”.
